Assay results as given in PMC12348157, “Neuroprotective Evaluation of Murraya Carbazoles: In Vitro and Docking Insights into Their Anti-AChE and Anti-Aβ Activities” (Molecules, 2025).
Converted amounts (≈) assume the structure as drawn. “And” between values parts separate entries of the source, which are not always exact repeats. Identical values can stand only once. Like-named read-outs stand apart in the source and are kept apart here.

Experiments:
Aβ1-42 fibrillization = biological target: T1, Aβ1-42 fibrillization (Homo sapiens, UniProt P05067); experiment: Thioflavin T (ThT) anti-Aβ fibrillization assay; assay type: biochemical; details: mean ± SD (n = 3); for Aβ fibrillization inhibition: samples 500 μg/mL, 24 h
T1 construct: Aβ1–42 was purchased from GenicBio Inc; purchased GenicBio Inc

[1] = biological target: T2, Acetylcholinesterase (Electrophorus electricus, Type VI-S) (Electrophorus electricus, UniProt O42275); experiment: biochemical; details: Electrophorus electricus AChE, mean of three experiments ± SD; read-out: IC50 anti-AChE activity (converted)
[2] = biological target: T2, Acetylcholinesterase (Electrophorus electricus, Type VI-S); experiment: AChE inhibition kinetics (Lineweaver–Burk / Michaelis–Menten); assay type: biochemical; details: for Inhibition Type: Lineweaver–Burk plots
Description: The inhibition curves were plotted using linear regression (Lineweaver–Burk plot) on GraphPad Prism 10.3 (Figure 8).
The Km and Vmax values were calculated using a non-linear fit (Michaelis–Menten equation) (Table 6). The Ki value (inhibitor constant), the dissociation constant describing the binding affinity between the inhibitor and the enzyme, was calculated as described previously.
AChE inhibition was measured using Ellman’s method with slight modifications. The compounds were incubated with the enzyme and the substrate (10 mM ATC) for 15 min. Later, 15 mM DTNB was added, and the plate was incubated for 10 min at 37 °C. The absorbance was measured at 412 nm using a multimode reader (Synergy-H1 BioTek, Agilent, Santa Clara, CA, USA). Galantamine served as a positive control. Percent inhibition was computed using the equation: […]
Statistical analysis was performed by one-way ANOVA followed by Dunnett’s post hoc test. The data were registered as the mean ± SD of at least three experiments. The symbol *** represent p < 0.001 significance compared to the control. The IC50 values were determined using non-linear regression, and the Lineweaver–Burk plots were drawn using linear regression analysis by GraphPad Prism 10.3.

microglial cells = details: cited from earlier work
[3] = tested on: LPS-treated animal models; details: cited from earlier work
AChE = details: cited from earlier work
[4] = listed as 9-methyl-9H-carbazole-2-carbaldehyde
[5] = inhibitor 10 μg/mL, read-out: Ki
[6] = inhibitor 30 μg/mL, read-out: Ki
[7] = no inhibitor concentration stated, read-out: Ki value
[8] = pre-treatment, LPS-treated animal models

T2 sequence (O42275 24-633): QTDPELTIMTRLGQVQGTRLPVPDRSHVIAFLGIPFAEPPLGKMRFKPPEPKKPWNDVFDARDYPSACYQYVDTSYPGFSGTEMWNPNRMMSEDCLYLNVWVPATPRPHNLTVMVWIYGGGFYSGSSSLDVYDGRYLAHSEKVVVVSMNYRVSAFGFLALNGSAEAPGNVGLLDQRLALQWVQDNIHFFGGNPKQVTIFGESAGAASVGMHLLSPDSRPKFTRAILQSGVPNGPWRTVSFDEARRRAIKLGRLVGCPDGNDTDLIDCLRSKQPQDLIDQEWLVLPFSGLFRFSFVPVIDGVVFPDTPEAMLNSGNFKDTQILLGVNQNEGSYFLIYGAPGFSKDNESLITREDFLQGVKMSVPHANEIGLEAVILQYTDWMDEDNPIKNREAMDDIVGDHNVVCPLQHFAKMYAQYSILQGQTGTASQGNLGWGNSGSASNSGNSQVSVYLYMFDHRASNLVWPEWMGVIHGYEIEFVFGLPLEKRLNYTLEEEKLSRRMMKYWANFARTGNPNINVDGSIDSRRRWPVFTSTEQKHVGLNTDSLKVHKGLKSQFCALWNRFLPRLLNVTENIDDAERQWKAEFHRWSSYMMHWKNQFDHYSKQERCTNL
T1 sequence (P05067 672-713): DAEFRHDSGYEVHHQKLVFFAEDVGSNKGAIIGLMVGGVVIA

SMILES | inhibition at 50 µM (Aβ1-42 fibrillization; phenol red 50 μM, read-out: Aβ fibrillization inhibition (positive control)) [%] | IC50 [1] | Inhibition Type [2] | Inhibition Type [2, 4] | Vmax ([2]; inhibitor 10 μg/mL) [µmol/min/mg] | Ki [2, 5] [nM] | Vmax ([2]; inhibitor 30 μg/mL) [µmol/min/mg] | Ki [2, 6] [nM] | Ki [2, 7] | Aβ fibrillization inhibition (Aβ1-42 fibrillization) | Aβ fibrillization inhibition (Aβ1-42 fibrillization; [4]) | Inhibition Type ([2]; listed as murrayafoline A) | Neuroprotective activity by reducing inflammation (microglial cells) | Inhibition Type ([2]; listed as murrayanol) | Inhibition Type ([2]; listed as mahanimbine) | Aβ1-40 levels ([3]; animal model) | Cognition ([3]; animal model) | ACh levels in the brain [3, 8] | AChE in the brain [3, 8] | IC50 anti-AChE, previously reported value (AChE) [µg/mL]
O=S1(=O)OC(c2ccc(O)cc2)(c2ccc(O)cc2)c2ccccc21 [phenol red, reference compound] | 67.86 ± 0.38 | – | – | – | – | – | – | – | – | – | – | – | – | – | – | – | – | – | – | –
Cn1c2ccccc2c2ccc(C=O)cc21 [9-Methyl-9H-carbazole-2-carbaldehyde, 9-methyl-9H-carbazole-2-carbaldehyde] | – | 37600 nM | Competitive | Competitive inhibition | 0.3874 | 29200 | 0.3634 | 31400 | ~30000 nM | did not show any inhibition | no inhibition | – | – | – | – | – | – | – | – | –
COc1cc(C)cc2c1[nH]c1ccccc12 [Murrayafoline A, murrayafoline A] | – | 67800 nM | Competitive | – | 0.3826 | 58700 | 0.3753 | 61000 | ~60000 nM | 33.60 ± 0.55% | – | Competitive inhibition | neuroprotective activity | – | – | – | – | – | – | –
COc1cc2[nH]c3c(C/C=C(\C)CCC=C(C)C)c(O)ccc3c2cc1C [Murrayanol, murrayanol] | – | ~550 nM and 523 nM | Competitive | – | 0.3756 | 444 | 0.3613 | 470 | ~450 nM and 450 nM and 440 to 590 nM | 40.83 ± 0.30% | – | – | – | Competitive inhibition | – | – | – | – | – | –
CC(C)=CCCC1(C)C=Cc2c(c(C)cc3c2[nH]c2ccccc23)O1 (centres unmarked) [Mahanimbine, mahanimbine] | – | ~603 nM and 603 nM | Non-Competitive | – | 0.2098 | 599 | 0.2231 | 599 | 440 to 590 nM | 27.68 ± 2.71% | – | – | – | – | non-competitive inhibition | reduced | improved cognition | improved | inhibited | –
COc1ccc2c3c1O[C@H]1C[C@@H](O)C=C[C@@]31CCN(C)C2 [Galantamine, galantamine] | – | – | – | – | – | – | – | – | – | – | – | – | – | – | – | – | – | – | – | 0.31 (≈ 1.08 µM)
